Measured values published in paper PMC12057336 (Antimicrobial Agents and Chemotherapy, 2025).

Columns and labels:
[1] = tested on: OAT3; settings: cited from earlier work
[2] = tested on: OCT2; settings: cited from earlier work
[3] = tested on: OCT1; settings: cited from earlier work
[4] = molecular target: human OATP1B1 (Homo sapiens, UniProt Q9Y6L6); settings: 5 µM; 10 min; 37°C; vs mock cells
Procedure: (§1) OATP1B1-, OATP1B3-, OATP2B1-, NTCP-, OAT1-, and OAT3-transfected HEK293 cells were cultured in DMEM supplemented with 10% FBS, 100 U/mL penicillin-streptomycin at 37°C with 95% relative humidity atmosphere containing 5% CO2. All cells were seeded in 24-well plates at a density of 4 × 10^5 cells/well and cultured for 1–2 days until they reached 80%–90% confluence. Prior to the initiation of uptake studies, the cells were washed twice with HBSS buffer at 37°C. Membrane vesicles were stored at −80°C and thawed at 37°C prior to the initiation of the studies.
(§2) All uptake tests were performed in triplicates. The activities of transporter-transfected HEK293 cells were evaluated using relevant positive substrates and inhibitors. E17G (5 µM, OATP1B1 and OATP1B3), ES (2 µM, OATP2B1), ES (5 µM, OAT3), TCA (10 µM, NTCP), and PAH (20 µM, OAT1) were used as substrates of the transporters. The inhibitors for each transporter were rifampicin (200 µM, OATP1B1 and OATP1B3), erlotinib (10 µM, OATP2B1), CsA (20 µM, NTCP), and probenecid (200 µM, OAT1 and OAT3).
(§3) The cells were washed three times with ice-cold HBSS buffer. […] The total protein concentration was measured using a BCA Protein Assay Kit. The uptake rates of HEK293-OATP1B1, HEK293-OATP1B3, HEK293-OATP2B1, HEK293-NTCP, HEK293-OAT1, HEK293-OAT3, and mock cells were calculated. […]

[5] = molecular target: human OATP1B3 (Homo sapiens, UniProt Q9NPD5); settings: 5 µM; 10 min; 37°C; vs mock cells
Chain of human OATP1B3 (Q9NPD5 whole entry): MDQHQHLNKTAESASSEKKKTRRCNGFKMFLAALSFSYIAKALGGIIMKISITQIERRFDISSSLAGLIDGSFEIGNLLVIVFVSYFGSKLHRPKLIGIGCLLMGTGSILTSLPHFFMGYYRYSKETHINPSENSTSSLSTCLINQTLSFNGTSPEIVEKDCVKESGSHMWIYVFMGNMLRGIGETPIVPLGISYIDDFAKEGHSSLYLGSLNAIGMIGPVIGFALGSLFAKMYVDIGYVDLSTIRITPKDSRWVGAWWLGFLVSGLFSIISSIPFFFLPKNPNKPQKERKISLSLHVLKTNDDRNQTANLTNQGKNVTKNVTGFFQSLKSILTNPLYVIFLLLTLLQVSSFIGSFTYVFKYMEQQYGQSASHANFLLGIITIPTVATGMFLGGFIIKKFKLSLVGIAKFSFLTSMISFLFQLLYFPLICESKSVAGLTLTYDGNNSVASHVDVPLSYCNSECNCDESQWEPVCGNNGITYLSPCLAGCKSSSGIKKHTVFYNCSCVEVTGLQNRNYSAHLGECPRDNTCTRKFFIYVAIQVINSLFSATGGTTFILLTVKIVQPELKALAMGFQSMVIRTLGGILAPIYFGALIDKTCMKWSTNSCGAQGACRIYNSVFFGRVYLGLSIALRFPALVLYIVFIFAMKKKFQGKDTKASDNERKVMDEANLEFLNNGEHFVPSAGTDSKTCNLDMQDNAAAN
Procedure: as §1, §2, §3

[6] = molecular target: T1, human NTCP (Homo sapiens, UniProt Q14973); assay: Uptake in NTCP-transfected HEK293 cells; settings: 5 µM; 10 min; 37°C; vs mock cells
T1 sequence (Q14973 1-349): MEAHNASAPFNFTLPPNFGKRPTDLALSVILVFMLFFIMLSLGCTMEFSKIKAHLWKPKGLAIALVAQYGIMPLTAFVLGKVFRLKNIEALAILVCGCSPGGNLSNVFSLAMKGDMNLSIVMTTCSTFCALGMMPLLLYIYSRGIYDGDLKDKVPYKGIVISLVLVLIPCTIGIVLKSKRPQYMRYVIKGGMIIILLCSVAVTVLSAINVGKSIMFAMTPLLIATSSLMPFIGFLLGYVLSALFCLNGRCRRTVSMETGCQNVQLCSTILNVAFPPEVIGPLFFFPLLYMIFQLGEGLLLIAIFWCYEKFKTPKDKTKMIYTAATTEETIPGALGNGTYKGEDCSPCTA
Procedure: as §1, §2, §3

[7] = tested on: OATP1B3; settings: cited from earlier work
[8] = tested on: OCT3; set-up: method as in PMID 27645247, PMID 26976869, PMID 27550354; settings: cited from earlier work
[9] = tested on: MATE2-K; settings: cited from earlier work
[10] = molecular target: T2, human OATP2B1 (Homo sapiens, UniProt O94956); assay: Uptake in OATP2B1-transfected HEK293 cells; settings: 5 µM; 10 min; 37°C; vs mock cells
T2 sequence (O94956 1-709): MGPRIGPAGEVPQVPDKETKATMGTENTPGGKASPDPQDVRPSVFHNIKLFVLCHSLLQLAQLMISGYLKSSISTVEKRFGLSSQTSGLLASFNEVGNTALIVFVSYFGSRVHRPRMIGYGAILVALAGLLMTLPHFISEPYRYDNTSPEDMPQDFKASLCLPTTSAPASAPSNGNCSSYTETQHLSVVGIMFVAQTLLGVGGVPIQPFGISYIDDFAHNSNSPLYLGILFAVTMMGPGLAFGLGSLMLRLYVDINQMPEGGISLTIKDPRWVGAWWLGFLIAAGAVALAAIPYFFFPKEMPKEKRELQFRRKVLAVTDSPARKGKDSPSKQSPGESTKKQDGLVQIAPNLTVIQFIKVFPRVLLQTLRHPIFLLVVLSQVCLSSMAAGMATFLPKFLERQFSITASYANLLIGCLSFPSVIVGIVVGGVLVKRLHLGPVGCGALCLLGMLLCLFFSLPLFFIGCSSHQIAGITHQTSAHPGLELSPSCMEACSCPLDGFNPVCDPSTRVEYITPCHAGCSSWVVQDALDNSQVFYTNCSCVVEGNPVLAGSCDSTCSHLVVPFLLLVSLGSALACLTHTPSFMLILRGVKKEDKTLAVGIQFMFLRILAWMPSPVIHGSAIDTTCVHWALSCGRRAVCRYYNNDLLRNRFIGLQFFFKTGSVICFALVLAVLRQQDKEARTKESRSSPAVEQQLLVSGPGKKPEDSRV
Procedure: as §1, §2, §3

[11] = tested on: MATE1; settings: cited from earlier work
[12] = tested on: MATE2-K; settings: cited from earlier work; remark: listed apart in the source
[13] = rats; cited from earlier work

Chain of human OATP1B1 (Q9Y6L6 whole entry): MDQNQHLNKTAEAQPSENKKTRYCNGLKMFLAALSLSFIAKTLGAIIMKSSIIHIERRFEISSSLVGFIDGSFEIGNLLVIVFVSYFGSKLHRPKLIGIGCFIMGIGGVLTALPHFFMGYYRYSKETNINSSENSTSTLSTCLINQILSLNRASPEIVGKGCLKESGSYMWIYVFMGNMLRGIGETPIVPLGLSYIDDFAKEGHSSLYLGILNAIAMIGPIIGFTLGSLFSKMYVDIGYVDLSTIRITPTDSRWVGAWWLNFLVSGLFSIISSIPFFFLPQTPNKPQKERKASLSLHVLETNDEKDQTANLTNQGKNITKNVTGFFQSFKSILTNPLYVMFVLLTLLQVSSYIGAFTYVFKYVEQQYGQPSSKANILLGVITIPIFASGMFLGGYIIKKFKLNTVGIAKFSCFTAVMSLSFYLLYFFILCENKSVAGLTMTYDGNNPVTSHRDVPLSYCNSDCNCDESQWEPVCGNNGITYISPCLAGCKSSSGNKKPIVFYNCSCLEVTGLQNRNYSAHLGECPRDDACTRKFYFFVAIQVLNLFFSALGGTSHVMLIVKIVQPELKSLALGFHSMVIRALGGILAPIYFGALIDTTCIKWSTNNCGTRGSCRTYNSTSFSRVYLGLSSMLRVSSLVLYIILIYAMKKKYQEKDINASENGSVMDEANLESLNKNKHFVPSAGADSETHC

Question: For `CC(=O)NC[C@H]1CN(c2ccc(N3CCOCC3)c(F)c2)C(=O)O1` [Linezolid], which “inhibitor of OAT3” value [1] is on record?
Answer: The value was “inhibitor”.

Question: And the “substrate for OCT2” value [2]?
Answer: Its value is “not a substrate”.

Question: And the “inhibitor of OCT1” value [3]?
Answer: The value was “not an inhibitor”.

Question: And the “substrate for OATP1B1” value [4]?
Answer: The value was “not a substrate”.

Question: And the “substrate for OATP1B3” value [5]?
Answer: Its value is “not a substrate”.

Question: And the “substrate for NTCP” value [6]?
Answer: Its value is “not a substrate”.

Question: And the “inhibitor of OATP1B3” value [7]?
Answer: Its value is “inhibitor”.

Question: What about the “inhibitor of OCT3” value [8] of the same compound?
Answer: Its value is “not an inhibitor”.

Question: What about the “inhibitor of MATE2-K” value [9] of the same compound?
Answer: The value was “not an inhibitor”.

Question: What about the “substrate for OATP2B1” value [10] of the same compound?
Answer: Its value is “not a substrate”.

Question: And the “substrate for MATE1” value [11]?
Answer: The value was “not a substrate”.

Question: And the “substrate for MATE2-K” value [12]?
Answer: The value was “not a substrate”.

Question: What about the “mean recovery of linezolid radioactivity in excreta” value [13] of the same compound?
Answer: Its value is “over 95%”.
